Laboratory results as given in patent US4639370A, “Pharmaceutical composition” (Farmitalia Carlo Erba S.p.A., priority 1984, dated 1987).
≈ marks a conversion by molar mass, not a printed value. Where two headings read alike, the source gives them in different places.

What was measured:
[1] = Description: The completeness of the amorphization process can be checked by the absence in the Differential Scanning Calorimetry thermogram of the resulting drug-polymer system of the transition peak relative to the solid/liquid endothermic transition of the crystalline drug. The absence of the transition peak means that the enthalpy of melting is practically zero.
This transformation is indicated by the shifting of the original endothermic peak of the DSC thermogram to lower temperatures, which leads to higher dissolution rates and bioavailability.
Differential Scanning Calorimetry Data

[2] = Solubility of indomethacin systems, pH 6.8 buffer, 37° C.; format: physicochemical
Experimental: The indomethacin concentrations were determined by spectrophotometry (λ=317 nm).

[3] = Solubility of MAP systems, pH 5.5 phosphate buffer, 37° C.; format: physicochemical
[4] = buffer, pH 2
[5] = Solubility of griseofulvin systems, pH 7.4 buffer, 37° C.

COc1ccc2c(c1)c(CC(=O)O)c(C)n2C(=O)c1ccc(Cl)cc1 [Pure crystalline Indomethacin, indomethacin]
Heat of Fusion ([1]; indomethacin systems, Table 4): 110.8 J/g | Melting Point ([1]; indomethacin systems, Table 4): 160.2 °C | Solubility (indomethacin concentration) ([2]; 5 min): 230.2 µg/mL (≈ 643 µM) | Solubility (indomethacin concentration) ([2]; 15 min): 358.2 µg/mL (≈ 1000 µM) | Solubility (indomethacin concentration) ([2]; 1 hr): 482.1 µg/mL (≈ 1350 µM) | Solubility (indomethacin concentration) ([2]; 3 hrs): 502.8 µg/mL (≈ 1410 µM) | Solubility (indomethacin concentration) ([2]; 24 hrs): 502.0 µg/mL (≈ 1400 µM)

CC(=O)O[C@]1(C(C)=O)CC[C@H]2[C@@H]3C[C@H](C)C4=CC(=O)CC[C@]4(C)[C@H]3CC[C@@]21C [Pure crystalline MAP, medroxyprogesterone acetate]
Melting Point [1]: 205-206 °C | melting point [1]: 205.6 ° | % Residual of Original Heat of Fusion ([1]; MAP systems, Table 1): 100.0% | Heat of Fusion ([1]; MAP systems, Table 1): 88.0 J/g | Solubility (MAP dissolved) ([3]; 5 min): < 0.04 µg/mL | Solubility (MAP dissolved) ([3]; 15 min): 0.32 µg/mL | Solubility (MAP dissolved) ([3]; 1 hr): 0.68 µg/mL | Solubility (MAP dissolved) ([3]; 6 hrs): 1.00 µg/mL

CC(C(=O)O)c1ccc(N2Cc3ccccc3C2=O)cc1 (stereo not drawn) [Pure crystalline Indoprofen, indoprofen]
Melting Point [1]: 212-215 °C | % Residual of Original Heat of Fusion ([1]; indoprofen systems, Table 2): 100.0% | Heat of Fusion ([1]; indoprofen systems, Table 2): 134.6 J/g | Solubility (indoprofen concentration) ([4]; 5 min): 1.6 µg/mL (≈ 5.69 µM) | Solubility (indoprofen concentration) ([4]; 0.25 h): 3.0 µg/mL (≈ 10.7 µM) | Solubility (indoprofen concentration) ([4]; 1 h): 4.8 µg/mL (≈ 17.1 µM) | Solubility (indoprofen concentration) ([4]; 24 h): 10.3 µg/mL (≈ 36.6 µM)

COC1=CC(=O)C[C@@H](C)[C@]12Oc1c(Cl)c(OC)cc(OC)c1C2=O [Pure crystalline Griseofulvin, griseofulvin]
Melting Point [1]: 218.8 °C | % Residual of Original Heat of Fusion ([1]; griseofulvin systems, Table 3): 100% | Heat of Fusion ([1]; griseofulvin systems, Table 3): 119.22 J/g | Solubility (griseofulvin concentration) ([5]; 5 min): 9.1 µg/mL (≈ 25.8 µM) | Solubility (griseofulvin concentration) ([5]; 15 min): 11.0 µg/mL (≈ 31.2 µM) | Solubility (griseofulvin concentration) ([5]; 1 hr): 10.9 µg/mL (≈ 30.9 µM) | Solubility (griseofulvin concentration) ([5]; 3 hrs): 11.3 µg/mL (≈ 32 µM) | Solubility (griseofulvin concentration) ([5]; 24 hrs): 14.9 µg/mL (≈ 42.2 µM)
